Measurements taken from doi:10.1101/2022.08.09.503277v2 (biorxiv, 2022).

Target: ECD-AT1G56145 (IGP1) (Arabidopsis thaliana, UniProt F4I3K3)
Assay: isothermal titration calorimetry
Assay type: binding
Conditions: 20 mM sodium citrate pH 5.0, 150 mM NaCl, 25 °C; single site, N fixed to 1

Kd [nM] | Structure (SMILES)
1190 ± 30 | OC[C@H]1O[C@@H](O[C@H]2[C@H](O)[C@@H](O)[C@H](O[C@H]3[C@H](O)[C@@H](O)C(O)O[C@@H]3CO)O[C@@H]2CO)[C@H](O)[C@@H](O)[C@@H]1O (some centres unmarked) [CEL3]
1400 ± 10 | OC[C@H]1O[C@@H](O[C@H]2[C@H](O)[C@@H](O)[C@H](O[C@H]3[C@H](O)[C@@H](O)[C@H](O[C@H]4[C@H](O)[C@@H](O)[C@H](O[C@H]5[C@H](O)[C@@H](O)C(O)O[C@@H]5CO)O[C@@H]4CO)O[C@@H]3CO)O[C@@H]2CO)[C@H](O)[C@@H](O)[C@@H]1O (some centres unmarked) [CEL5]
